Source: patent US20060263453A1, “Methods and compositions for modulating glutamate dehydrogenase” (priority 2004, published 2006)

System: islets
Assay: [U-14C]-glucose oxidation in islets
Assay type: cell-based, rat
Details: wide range of EGCG concentrations; 3 mM or 12 mM glucose; FIG. 10
Method: In addition, the effect of EGCG on glucose oxidation was measured. More particularly, batches of 100 islets were prepared as described herein and preincubated with glucose-free Krebs-Ringer bicarbonate buffer containing varying concentrations of EGCG (shown in FIG. 10) for 60 minutes. Islets were then incubated with 3 mM or 12 mM glucose, in the presence of the varying concentrations of EGCG, for another 60 minutes, along with 2 mCi [U-^14C]-glucose (NEN-Life Science Products, UK). Production of ^14CO2 was monitored as described above.

## O=C(O[C@@H]1Cc2c(O)cc(O)cc2O[C@@H]1c1cc(O)c(O)c(O)c1)c1cc(O)c(O)c(O)c1 [EGCG, (2R,3R)-2-(3,4,5-Trihydroxyphenyl)-3,4-dihydro-1 (2H)-benzopyran-3,5,7-triol 3-(3,4,5-trihydroxybenzoate)]
  effect on glucose oxidation: did not affect
